Assay results: US20250098679A1, “HERBICIDAL PYRIDONE DERIVATIVES” (SYNGENTA CROP PROTECTION AG, priority 2021, published 2025)

What was measured:
Type in all cases: in vivo
Conditions in all cases: evaluated after 13 days
[1] = tested on: Amaranthus retoflexus (AMARE); experiment: Pre-emergence Test, Amaranthus retoflexus (AMARE)
Zea mays (ZEAMX) [2] = experiment: Pre-emergence Test, Zea mays (ZEAMX)
[3] = tested on: Amaranthus retoflexus (AMARE); experiment: Post-emergence Test, Amaranthus retoflexus (AMARE); set-up: key to percentage damage caused to the plant, AMARE (five-point scale): 5=81-100%, 4=61-80%, 3=41-60%, 2=21-40%, 1=0-20% damage
Procedure, shortened: (§1)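 Tested at 1000 g/ha unless otherwise stated. Plants were held at 24/16 °C day/night with a 14 h light period. Percent damage was read at 13 days and reported in five bands.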

Setaria faberi (SETFA) [4] = experiment: Pre-emergence Test, Setaria faberi (SETFA)
[5] = tested on: Echinochloa crus-galli (ECHCG); experiment: Pre-emergence Test, Echinochloa crus-galli (ECHCG)
[6] = tested on: Amaranthus palmeri (AMAPA); experiment: Pre-emergence Test, Amaranthus palmeri (AMAPA)
[7] = tested on: Ipomoea hederacea (IPOHE); experiment: Pre-emergence Test, Ipomoea hederacea (IPOHE)
[8] = tested on: Ipomoea hederacea (IPOHE); experiment: Post-emergence Test, Ipomoea hederacea (IPOHE); set-up: key to percentage damage caused to the plant, IPOHE (five-point scale): 5=81-100%, 4=61-80%, 3=41-60%, 2=21-40%, 1=0-20% damage
Procedure, shortened: as §1

Setaria faberi (SETFA) [9] = experiment: Post-emergence Test, Setaria faberi (SETFA); set-up: key to percentage damage caused to the plant, SETFA (five-point scale): 5=81-100%, 4=61-80%, 3=41-60%, 2=21-40%, 1=0-20% damage
Procedure, shortened: as §1

[10] = tested on: Echinochloa crus-galli (ECHCG); experiment: Post-emergence Test, Echinochloa crus-galli (ECHCG); set-up: key to percentage damage caused to the plant, ECHCG (five-point scale): 5=81-100%, 4=61-80%, 3=41-60%, 2=21-40%, 1=0-20% damage
Procedure, shortened: as §1

Zea mays (ZEAMX) [11] = experiment: Post-emergence Test, Zea mays (ZEAMX); set-up: key to percentage damage caused to the plant, ZEAMX (five-point scale): 5=81-100%, 4=61-80%, 3=41-60%, 2=21-40%, 1=0-20% damage
Procedure, shortened: as §1

[12] = tested on: Amaranthus palmeri (AMAPA); experiment: Post-emergence Test, Amaranthus palmeri (AMAPA); set-up: key: 5=81-100%, 4=61-80%, 3=41-60%, 2=21-40%, 1=0-20% damage
Procedure, shortened: as §1

| SMILES | Pre-emergence Test AMARE, percentage damage caused to the plant (five-point scale) ([1]; 250 g/Ha (*)) | Pre-emergence Test AMARE, percentage damage caused to the plant (five-point scale) ([1]; 1000 g/ha) | Pre-emergence Test ZEAMX, percentage damage caused to the plant (five-point scale) (Zea mays (ZEAMX) [2]; 250 g/Ha (*)) | Pre-emergence Test ZEAMX, percentage damage caused to the plant (five-point scale) (Zea mays (ZEAMX) [2]; 1000 g/ha) | percentage damage caused to the plant, AMARE (five-point scale) ([3]; 250 g/Ha) | percentage damage caused to the plant, AMARE (five-point scale) ([3]; 1000 g/ha) | Pre-emergence Test SETFA, percentage damage caused to the plant (five-point scale) (Setaria faberi (SETFA) [4]; 250 g/Ha (*)) | Pre-emergence Test SETFA, percentage damage caused to the plant (five-point scale) (Setaria faberi (SETFA) [4]; 1000 g/ha) | Pre-emergence Test ECHCG, percentage damage caused to the plant (five-point scale) ([5]; 250 g/Ha (*)) | Pre-emergence Test ECHCG, percentage damage caused to the plant (five-point scale) ([5]; 1000 g/ha) | Pre-emergence Test AMAPA, percentage damage caused to the plant (five-point scale) ([6]; 250 g/Ha (*)) | Pre-emergence Test AMAPA, percentage damage caused to the plant (five-point scale) ([6]; 1000 g/ha) | Pre-emergence Test IPOHE, percentage damage caused to the plant (five-point scale) ([7]; 250 g/Ha (*)) | Pre-emergence Test IPOHE, percentage damage caused to the plant (five-point scale) ([7]; 1000 g/ha) | percentage damage caused to the plant, IPOHE (five-point scale) ([8]; 250 g/Ha) | percentage damage caused to the plant, IPOHE (five-point scale) ([8]; 1000 g/ha) | percentage damage caused to the plant, SETFA (five-point scale) (Setaria faberi (SETFA) [9]; 250 g/Ha) | percentage damage caused to the plant, SETFA (five-point scale) (Setaria faberi (SETFA) [9]; 1000 g/ha) | percentage damage caused to the plant, ECHCG (five-point scale) ([10]; 1000 g/ha) | percentage damage caused to the plant, ZEAMX (five-point scale) (Zea mays (ZEAMX) [11]; 1000 g/ha) | further results |
| --- | --- | --- | --- | --- | --- | --- | --- | --- | --- | --- | --- | --- | --- | --- | --- | --- | --- | --- | --- | --- | --- |
| CCn1c(Cn2ccc(Cl)n2)cc(=O)c(C(=O)O)c1-c1ccc(C#N)c(Cl)c1 [Compound 119, 2-(3-chloro-4-cyano-phenyl)-6-[(3-chloropyrazol-1-yl)methyl]-1-ethyl-4-oxo-pyridine-3-carboxylic acid] | 0 | 0 | 0 | 0 | 1 (1=0-20%) | 0 | 3 (3=41-60%) | 4 (4=61-80%) | 1 (1=0-20%) | 3 (3=41-60%) | 1 (1=0-20%) | 1 (1=0-20%) | 0 | 0 | 1 (1=0-20%) | 2 (2=21-40%) | 1 (1=0-20%) | 4 (4=61-80%) | 4 (4=61-80%) | 0 | percentage damage caused to the plant, ECHCG (five-point scale) ([10]; 250 g/Ha): 1 (1=0-20%); percentage damage caused to the plant, ZEAMX (five-point scale) (Zea mays (ZEAMX) [11]; 250 g/Ha): 0; percentage damage caused to the plant, AMAPA (five-point scale) ([12]; 250 g/Ha): 0 |
| CCn1c(Cn2ccnn2)cc(=O)c(C(=O)O)c1-c1ccc(Cl)c(Cl)c1 [Compound 45, 2-(3,4-dichlorophenyl)-1-ethyl-4-oxo-6-(triazol-1-ylmethyl)pyridine-3-carboxylic acid] |  | 0 |  | 0 |  | 0 |  | 1 (1=0-20%) |  | 4 (4=61-80%) |  | 1 (1=0-20%) |  | 0 |  | 0 |  | 1 (1=0-20%) | 1 (1=0-20%) | 0 | percentage damage caused to the plant, AMAPA (five-point scale) ([12]; 1000 g/ha): 1 (1=0-20%) |
| CCn1c(Cn2cc(C(F)(F)F)cn2)cc(=O)c(C(=O)O)c1-c1ccc(Cl)c(Cl)c1 [Compound 6, 2-(3,4-dichlorophenyl)-1-ethyl-4-oxo-6-[[4-(trifluoromethyl)pyrazol-1-yl]methyl]pyridine-3-carboxylic acid] | 0 | 0 | 0 | 0 | 1 (1=0-20%) | 0 | 2 (2=21-40%) | 4 (4=61-80%) | 3 (3=41-60%) | 3 (3=41-60%) | 1 (1=0-20%) |  | 1 (1=0-20%) | 2 (2=21-40%) | 1 (1=0-20%) | 1 (1=0-20%) | 0 | 4 (4=61-80%) | 4 (4=61-80%) | 4 (4=61-80%) | percentage damage caused to the plant, ECHCG (five-point scale) ([10]; 250 g/Ha): 3 (3=41-60%); percentage damage caused to the plant, ZEAMX (five-point scale) (Zea mays (ZEAMX) [11]; 250 g/Ha): 0; percentage damage caused to the plant, AMAPA (five-point scale) ([12]; 250 g/Ha): 0; percentage damage caused to the plant, AMAPA (five-point scale) ([12]; 1000 g/ha): 2 (2=21-40%) |
| CCOc1cc(C(F)(F)F)nn1Cc1cc(=O)c(C(=O)O)c(-c2ccc(Cl)c(Cl)c2)n1CC [Compound 148, 2-(3,4-dichlorophenyl)-6-[[5-ethoxy-3-(trifluoromethyl)pyrazol-1-yl]methyl]-1-ethyl-4-oxo-pyridine-3-carboxylic acid] | 0 | 0 | 0 | 0 | 1 (1=0-20%) | 3 (3=41-60%) | 2 (2=21-40%) | 5 (5=81-100%) | 0 | 2 (2=21-40%) | 0 | 1 (1=0-20%) | 0 | 2 (2=21-40%) | 2 (2=21-40%) | 2 (2=21-40%) | 3 (3=41-60%) | 4 (4=61-80%) | 4 (4=61-80%) | 2 (2=21-40%) | percentage damage caused to the plant, ECHCG (five-point scale) ([10]; 250 g/Ha): 2 (2=21-40%); percentage damage caused to the plant, ZEAMX (five-point scale) (Zea mays (ZEAMX) [11]; 250 g/Ha): 1 (1=0-20%); percentage damage caused to the plant, AMAPA (five-point scale) ([12]; 250 g/Ha): 1 (1=0-20%); percentage damage caused to the plant, AMAPA (five-point scale) ([12]; 1000 g/ha): 3 (3=41-60%) |
